Measurements as given in ChEMBL document CHEMBL3507680, “University of Dundee, Gates Library screen for HepG2 cell viability”.

Test: Human HepG2 cell viability assay in 384 well format
Type: toxicity, cell-based
Set-up: dose 125 nL, time 70.5 hour; concentration not given beside the values
Details: HepG2 cells, read-out: Inhibition

Row | Compound | cytotoxicity at 70.5 h
1 | CC(C)NC(=O)N(Cc1cc(O)nc2ccccc12)C(C)C | -7.39%
2 | CCOCC(=O)Nc1cccnc1-n1ccnc1C | -6.13%
3 | Cn1ccnc1COc1ccc(CSc2nncn2C2CC2)cc1 | -8.64%
4 | c1cc(CCNc2ncnc3c2CCN(Cc2ccoc2)CC3)ccn1 | 0.564%
5 | Cc1onc(-c2ccncc2)c1C(=O)NC1CCCOC1 (centres undefined) | -9.07%
6 | CN(C)c1ccc(CC2CCN(c3cnccn3)CC2)nn1 | -7.84%
7 | COCC(C)(C#N)NC(=O)COc1ccccc1Br (centres undefined) | -0.405%
8 | O=C(CN1CCOC(CNc2cccnn2)C1)NCc1ccccn1 (centres undefined) | 19%
9 | CN(C)c1ncccc1CNS(=O)(=O)c1ccc(F)c(F)c1 | 1.87%
10 | CC(Cn1ccnc1)NC(=O)N1CCN(Cc2ccsc2)CC1 (centres undefined) | -2.59%
11 | CS(=O)(=O)N1CCN(C(=O)c2cnn3c2OCCC3)CC1 | -2.74%
12 | CCOCc1ccc(CNC2=NCCCN2)cc1 | -2.49%
13 | CN1CCOC(CNCc2c(Cl)nc3ccccn23)C1 (centres undefined) | -19.2%
14 | Cc1csc(C(C)(C)NCC(=O)N2CCCC(C(N)=O)C2)n1 (centres undefined) | 6.15%
15 | CC(C)(C)Oc1ccccc1CNC(=O)C1CCCOC1 (centres undefined) | -0.0152%
16 | COc1ccccc1OC1CN(Cc2ccc(C(=O)O)cc2)C1 | -8.2%
17 | Cc1ccc(S(=O)(=O)Cc2noc([C@@H]3C[C@@H](O)CN3C(C)C)n2)cc1 | -8.79%
18 | CCCc1noc(C2CC(=O)N(C(C)(C)C)C2)n1 (centres undefined) | -16%
19 | Cc1noc(C)c1CC(=O)N1CCCC(Cc2ccccn2)C1 (centres undefined) | -7.69%
20 | CC(CNC(=O)Nc1ccc(N(C)C)nc1)Cn1cccn1 (centres undefined) | -7.16%
21 | FC(F)(F)COCCN1CCOC(Cn2cccn2)C1 (centres undefined) | -0.0607%
22 | Cc1ccsc1C(=O)N1CC[C@@H](N(C)C)[C@@H]1Cc1cnn(C)c1 | -11.2%
23 | CC(C)Sc1ccc(C(C)NC(=O)CNS(C)(=O)=O)cc1 (centres undefined) | 17%

Row | Compound | cytotoxicity at 70.5 h
24 | Cc1cnn(C2CCCN(C(=O)CCc3nccs3)C2)c1 (centres undefined) | 17.1%
25 | Cc1cccc(CS(=O)(=O)c2nnc(N3CCOCC3)s2)c1 | 0.983%
26 | Cc1cnn(CC2CCCN2C(=O)c2cc(O)nc3ccccc23)c1 (centres undefined) | -7.86%
27 | CC(NC(=O)c1nc(=O)[nH][nH]1)c1ccc(OCC2CC2)c(F)c1 (centres undefined) | 29.1%
28 | O=C(CCOCC(F)(F)F)NS(=O)(=O)c1cccnc1 | -3.03%
29 | CN(Cc1ccc(F)cc1)C(=O)NCc1nnc2n1CCCCC2 | 33.6%
30 | Fc1cnc(N2CCO[C@H]3CN(CC4CCOC4)C[C@H]32)nc1 (some centres undefined) | 26.2%
31 | O=C(NCc1cc[nH]n1)NCC(O)c1ccccc1F (centres undefined) | 0.0915%
32 | CNC(=O)COc1c(C(C)=O)ccc(Cl)c1Cl | -8.98%
33 | Cc1ccccc1C(=O)NCC(O)c1ccc(F)c(F)c1 (centres undefined) | -5.82%
34 | c1cncc(-c2ccc3c(c2)CCC32CCNCC2)c1 | 17.8%
35 | COC[C@@]12CCO[C@@H]1CCN(C(=O)Cc1ccccc1F)C2 | -10.5%
36 | O=C1OCCN1C1CCN(Cc2cc3n(n2)CCCNC3)CC1 | 17.1%
37 | CCCc1noc(CCC(=O)N2CCCC2c2cccs2)n1 (centres undefined) | -2.53%
38 | Cc1cc(CNC(=O)CCN2CCN(c3ccccn3)CC2)c(C)o1 | 9.41%
39 | O=C(c1cnccn1)N1CCC(Oc2ncccc2Cl)CC1 | 4.06%
40 | Cc1cc(C(=O)N2CCC[C@]3(C[C@H](OCC4CC4)CO3)C2)no1 | -0.0994%
41 | Cc1cnn(CC2CN(Cc3nccn3C)CCO2)c1 (centres undefined) | -10.6%
42 | O=C(c1ccc2c(c1)[nH]c(=O)n2C1CCCC1)N1CC(O)C1 | -3.54%
43 | CNC(=O)c1cccc(C2CNCCN2C(C)=O)c1 (centres undefined) | 14.8%
44 | O=C(C1CCOC1)N1CCN(Cc2ccc3c(c2)CCO3)CC1 (centres undefined) | -9.08%
45 | CC(C)n1ncc2c1NC(=O)CC21C(=O)Nc2cc(Cl)cc(Cl)c21 (centres undefined) | -17.8%
46 | N#CC1(C(=O)NCCCNc2ccc(C(F)(F)F)cn2)CCCC1 | 5.77%

Row | Compound | cytotoxicity at 70.5 h
47 | CN1CC(=O)N(c2cccc(F)c2)CC12CCNC2 (centres undefined) | 1.26%
48 | CCc1c(C(=O)Nc2ccc(F)c(C(=O)NC)c2)cnn1CC(C)C | 0.0762%
49 | Fc1ccc(C2CN(c3ncnc4[nH]ncc34)CCO2)cc1 (centres undefined) | 12.2%
50 | O=C(c1ccnnc1)N1CCO[C@H]2[C@@H](OCc3cccnc3)CC[C@@H]21 | -6.56%
51 | COC(=O)c1ccc(N2CCN(C(=O)CC(F)(F)F)C(C)C2)cc1 (centres undefined) | -9.89%
52 | CC(C)C(=O)N1CCN(CC(O)c2cc(Cl)ccc2Cl)CC1 (centres undefined) | -7.34%
53 | CN(C)S(=O)(=O)NCc1cccnc1Oc1ccc(F)c(F)c1 | -4.24%
54 | Cc1nc2c(c(NCCN3CCOCC3)n1)CCN(C)C2 | 32.4%
55 | Cc1ccc(S(C)(=O)=O)cc1NCC(=O)NCCC1=CCCCC1 | -9.03%
56 | CN(C)C(=O)Cc1ccc(NC(=O)NC2CCCC2)cc1 | -7.5%
57 | O=C(c1ccco1)N1CCCC(c2cc(C(F)(F)F)[nH]n2)C1 (centres undefined) | -7.38%
58 | CC(=O)Nc1ccsc1C(=O)Nc1cnc2n1CCCC2 | -4.21%
59 | O=S(=O)(C1CC1)N1CCC2(CC1)CN(Cc1nccs1)CCO2 | -5.12%
60 | OC1(CN2CCCCC2)CCN(c2cccc(C(F)(F)F)n2)C1 (centres undefined) | -14.1%
61 | CCc1noc(C(C)N(C)CC(=O)Nc2cccc(C)c2C)n1 (centres undefined) | 20.2%
62 | Cn1c(C2CC2)nc2c1CCN(CC(=O)Nc1ccncc1)C2 | 4.27%
63 | COc1c(C)cc(C(C(=O)O)N(C)Cc2ccn[nH]2)cc1C (centres undefined) | -3.26%
64 | CC(C)n1ccnc1C1CCCN(c2ncccc2C(N)=O)C1 (centres undefined) | -0.947%
65 | Cc1cc(C(=O)N2C[C@@H]3COC[C@]3(c3nnc(C4CC4)o3)C2)on1 | -19%
66 | COCc1cnc2n1CCN(S(=O)(=O)N(C)C)C2C (centres undefined) | -15.1%
67 | CNC(=O)CN1C(=O)CCC12CCCN(Cc1ccccc1F)C2 (centres undefined) | 6.16%
68 | CS(=O)(=O)NC1CCCN(C(=O)NCc2cccc(F)c2)C1 (centres undefined) | -4.51%
69 | COCCN1C(=O)CCC12CCCN(c1ncc(F)cn1)CC2 (centres undefined) | 1.58%

Row | Compound | cytotoxicity at 70.5 h
70 | CC(C)N1CCCC2(CCN(C(=O)COCC(F)(F)C(F)F)C2)C1=O (centres undefined) | -3.34%
71 | COc1cccc(COC(C)C(=O)N(C)Cc2nnc3n2CCC3)c1 (centres undefined) | -3.46%
72 | c1ccc(Cn2cc3c(n2)C(CNCC2CCOCC2)OCC3)nc1 (centres undefined) | -1.54%
73 | COC(=O)C1CN(Cc2nc(-c3ccccc3)cs2)C[C@@H](C)O1 (some centres undefined) | 3.89%
74 | Cc1nccn1CCC1CCCCN1Cc1ccc2c(c1)OCCO2 (centres undefined) | 14.5%
75 | NC(=O)c1ccc(CN2CCCC(O)C2)cc1 (centres undefined) | -3.47%
76 | CC(C)(C)C(=O)N1CC[C@@H]2[C@H](CC1)N(S(C)(=O)=O)CCS2(=O)=O | -10.7%
77 | COc1ccc(C[C@H]2CN(C(=O)c3ncccn3)CC[C@@H]2OC)cc1 | -6.01%
78 | O=C(NCCCOCC1CC1)Nc1ccc(F)cc1 | 0.857%
79 | COC(=O)c1ccc(Cn2cccc(C(F)(F)F)c2=O)c(OC)c1 | 21.6%
80 | Cc1n[nH]c(C)c1CCNC(=O)Nc1ccc2c(c1)COC2 | -19%
81 | Cc1ccc(N2CCN(C(=O)COc3ccccc3)CC2)nn1 | -1.33%
82 | CCN1CCNC(=O)C12CCN(S(=O)(=O)c1ccccc1)CC2 | -6.26%
83 | Cc1nc(-c2cn(CCN)nn2)n(-c2ccc(C(F)(F)F)cc2)n1 | 5.79%
84 | OCC1CCCN1c1cc(N2CCC(OC3CCCC3)CC2)ncn1 (centres undefined) | -3.18%
85 | COC(=O)c1ccc(F)c(S(=O)(=O)Nc2ccc(C(N)=O)cc2)c1 | -16.7%
86 | CCOCC(=O)N1CC(=O)Nc2cc(Br)ccc21 | -6.53%
87 | CN(Cc1cnccn1)C(=O)Nc1cc(F)cc(N2CCCC2)c1 | -5.64%
88 | Cc1cccc(CS(=O)(=O)NCc2nn(C)c3c2COCC3)c1 | -7.96%
89 | CCOc1ccc(CN[C@@H]2COC[C@H]2c2ccc(F)cc2)cc1 | 29.1%
90 | O=C(NC1CCc2cc(Cl)ccc21)C1CCN(C(=O)C2CC2)CC1 (centres undefined) | -4.11%
91 | Cc1ccc(C(=O)N2CCC3(CCN3c3ncccn3)C2)cn1 (centres undefined) | -1.31%
92 | N[C@H]1CC[C@@H](n2cc(C(=O)N[C@H]3CCCc4ccccc43)nn2)CC1 | -10.4%

Row | Compound | cytotoxicity at 70.5 h
93 | Cc1nn(C)c(C)c1S(=O)(=O)NCC1CCN(c2ccccn2)CC1 | 0.358%
94 | Cc1ccc(N2CC[C@H](OCC3CC3)[C@@H]2Cc2ccncc2)nn1 | -4.81%
95 | COCc1noc(C2(c3ccc(F)cc3)CCC2)n1 | -0.0433%
96 | Cc1ccc(C(=O)N2CCCN(Cc3cccs3)CC2)n1C | -7.93%
97 | CCC(C)NC(=O)c1cccc(CNC(=O)CC(F)(F)F)c1 (centres undefined) | -6.23%
98 | COCCCN(C)c1nc(-c2ccncc2)nc2c1CCN(C(C)=O)C2 | -7.86%
99 | CCN(CC1CCOC1)C(=O)c1ccc(-c2ccsc2)nc1C (centres undefined) | -7.65%
100 | CCn1cc(C(=O)NCc2csc(Br)c2)cn1 | -11.6%
101 | CC(C(=O)N1CCOCC1)N1CCN(Cc2nccn2C)CC1 (centres undefined) | -2.07%
102 | O=C(c1ccco1)N1C[C@H]2CCCN(CC3CCOCC3)[C@H]2C1 | -7.8%
103 | CC(C)(CNC(=O)C1CCCN1S(C)(=O)=O)N1CCOCC1 (centres undefined) | -11%
104 | COc1ccc2c(c1)CN(C)C(=O)CCN2CC(O)C(C)(C)C (centres undefined) | -6.98%
105 | c1cncc(-c2noc(CNCC3CCCN3c3cccnn3)n2)c1 (centres undefined) | -2.21%
106 | CN1CCC(N(C)CCC(=O)N2CCC(OCc3ccccc3)CC2)C1 (centres undefined) | 29.2%
107 | O=C(N1CCC(Nc2cccnn2)CC1)C1(c2ccc(F)cc2)CC1 | -6.39%
108 | CN(C)C(=O)CN1CCCCC1c1nc(N)ncc1-c1ccc(Cl)cc1 (centres undefined) | -15.8%
109 | CCn1cnnc1CCNC(=O)C1COc2ccc(OC)cc2C1 (centres undefined) | -11.5%
110 | COC(=O)CN1Cc2cc3c(cc2NCCC1=O)OCO3 | -9.74%
111 | CCn1nc(C)c2ccn(CC(=O)NC3CC3)c(=O)c21 | -9.78%
112 | COCCN1CCO[C@@H]2CN(Cc3ccccc3OC)C[C@@H]2C1 | -0.773%
113 | O=C(NCc1ccccn1)[C@@H]1COC[C@H]2CN(C3CCC3)C[C@H]21 | -13.4%
114 | Cc1cccc(N2CCC3(CCCN(C(=O)Cc4cccnc4)C3)C2)n1 (centres undefined) | 21.3%
